Data as given in patent publication US20240125770A1, “CELL ANALYSIS” (University of Dundee, priority 2021, published 2024).
Entries after “also recorded” stand apart in the source; their conditions may differ.

Test system: human iPSC lines
Experiment: Cell painting assay (image-based cell phenotyping) on a panel of human iPSC lines from different donors
Conditions: 24 hrs; for Uniformity or variation of response between human iPSC lines in UMAP embedding: panel of human iPSC lines from different donors, concentration of Table 2 (5 μM; fenbendazole 3.34 μM); for UMAP embedding of cell painting features: cluster: panel of HipSci human iPSC lines, clusters: 1 DMSO and weak responders, 2 Atorvastatin, Simvastatin, Fluphenazine, 3 Afatinib, Erlotinib, Everolimus and Rapamycin, 4 DNA damaging agents and topoisomerase inhibitors, 5 non-microtubule targeting cytotoxics, 6 Microtubule polymerization effectors; for Response to drug in UMAP embedding, cell lines paim3 and pelm1: paim3 and pelm1 lines (FIG. 7 legend prints pelm3); for Changes of features in the cell nucleus across cell lines: etoposide 1.7 μM, irinotecan 5 μM, nuclear painting probes
Protocol: 384-well tissue culture plates (CellCarrier-384 Ultra Microplates, Perkin Elmer 6057300) were coated with human plasma fibronectin (Merck Millipore FC010) at a concentration of 5 μg/cm^2. Cells were passaged as described above with TrypLE Select, counted and seeded on the fibronectin coated wells at a concentration of 3×10^4/cm^2. Cell line plating was in rows, with three wells per condition for each cell line. Cells were incubated for 24 hrs prior to drug treatment, followed by a further 24 hrs incubation before final fixation and staining and high content imaging. Antibody staining of a separate 384-well plate at 48 hrs confirmed that pluripotency was maintained at 48 hrs.
All fixation, permeabilisation and immunostaining were performed at room temperature. Paraformaldehyde 8% in PBS (PFA, Sigma F8775) was added to an equal volume of medium for a final concentration of 4% and incubated for 15 min. Fixed cells were washed in PBS and permeabilised with 0.1% v/v Triton-X100 (Sigma) for 15 min. Following permeabilisation, cells were washed in TBS and stained with DAPI (Thermo Fisher D1306), SYTO 14 (Thermo Fisher S7576), Concanavalin A (Thermo Fisher C11252), Phalloidin Alexa (Thermo Fisher A12381), and WGA (Thermo Fisher W11262) for 1 hr. Mitotracker (Thermo Fisher M22426) staining was performed in live cells with a 30 min incubation at 37° C. prior to fixation. Cell fixation, permeabilisation, staining and washing steps were performed using automated liquid handling systems (405 plate washer, BioTek—Tempest, Formulatrix).
Drug dosing on 384-well plates was performed using an Echo acoustic liquid handler and corresponding software (Labcyte). Screened compounds were selected from the appropriate chemical library plates containing Cloud library (Enamine) and NPSC Control library. For etoposide drug dosing was performed at 1.7 μM. […]
All imaging data were collected on an InCell 2200 high content imager, with a 20× lens and a Quad2 multichroic mirror (GE, Issaquah, WA).
Raw images were imported into OMERO Plus (Glencoe Software, Inc., (9)) and then processed using a custom pipeline in CellProfiler (8) which segmented nuclei, cytoplasm, golgi and cortical protrusions and calculated a range of defined features. All further steps were executed using the Pandas Python library (10). Features for each plate were normalised by the median of features in DMSO control for that plate. Features whose coefficient of variation was greater than 0.50 were removed from further analysis (typically these were Zernike Phase features). We further removed all features with |Spearman coefficient|>0.98. Z-normalised data were then visualised using principal component analysis (PCA) and Uniform Manifold Approximation and Projection (UMAP (11)). For PCA, we calculated the first 15 principal components and variance included in the first two principal components was 77.1%. UMAP parameters were n_neighbours=15, mindist=0.01 and a cosine metric for scaling distance between points. GO enrichment analysis was carried out using WebGestalt (WEB-based Gene SeT AnaLysis Toolkit) (12)
We next used a selection of human iPSCs from the HipSci cohort to test our ability to detect differential effects of FDA-approved drugs, using an image-based cell phenotyping assay. All selected human iPSC lines were previously subjected to whole genome sequencing (https://www.hipsci.org) and the genome data are publicly available. Cells from selected human iPSC lines (Table 1), were grown in 384 well plates, treated with selected compounds (drugs and concentrations used are shown in Table 2), for 24 hrs, then fixed and stained with cell painting markers (see Materials and Methods). Images were recorded in an automated, plate-based imager, then imported into OMERO (9). Images were segmented with respect to the features, ‘nuclei’, ‘cytoplasm’, ‘Golgi’ and ‘protrusions’, using a custom CellProfiler pipeline (13) and image features were then calculated (˜300 features per cell compartment). […]

O=c1[nH]cc(F)c(=O)[nH]1 [5-FU]
Uniformity or variation of response between human iPSC lines in UMAP embedding: Most cells responded to 5-FU (cluster 1, red, FIG. 3A), but several showed a response indistinguishable from DMSO

CC(C)c1c(C(=O)Nc2ccccc2)c(-c2ccccc2)c(-c2ccc(F)cc2)n1CC[C@@H](O)C[C@@H](O)CC(=O)O [Atorvastatin]
Magnitude of response: heatmap of deviations of all features from DMSO (all cell lines, before Z normalization, 5 μM, FIG. 5A): the magnitude of the responses differ between the different cell lines
UMAP embedding of cell painting features: cluster (5 μM): cluster 2
Uniformity or variation of response between human iPSC lines in UMAP embedding: tight clustering in UMAP embedding

C#Cc1cccc(Nc2ncnc3cc(OCCOC)c(OCCOC)cc23)c1 [Erlotinib]
Response to drug in UMAP embedding, all other / majority of human iPSC lines (human iPSC lines other than paim3 and pelm1, 5 μM): resembles rapamycin and everolimus; also recorded: clustered with rapamycin and everolimus
Response to drug in UMAP embedding, cell lines paim3 and pelm1 (5 μM): afatinib cluster
Response to drug in UMAP embedding, cell lines paim3 and pelm1 (5 μM, listed as erlotinib): clustered with afatinib
Uniformity or variation of response between human iPSC lines in UMAP embedding: differential response of some lines
Response to drug in UMAP embedding, cell line voce2 (voce2 line (along with the majority of hiPSCs), 5 μM, FIG. 7): Erlotinib cluster
Response to drug in UMAP embedding, cell line zaie1 (zaie1 line, 5 μM, FIG. 7): weak responders group

COc1cc([C@@H]2c3cc4c(cc3[C@@H](O[C@@H]3O[C@@H]5CO[C@@H](C)O[C@H]5[C@H](O)[C@H]3O)[C@H]3COC(=O)[C@H]23)OCO4)cc(OC)c1O [Etoposide]
Changes of features in the cell nucleus across cell lines: cause similar changes in multiple cell lines

CO[C@H]1C[C@@H]2CC[C@@H](C)[C@@](O)(O2)C(=O)C(=O)N2CCCC[C@H]2C(=O)O[C@H]([C@H](C)C[C@@H]2CC[C@@H](OCCO)[C@H](OC)C2)CC(=O)[C@H](C)/C=C(\C)[C@@H](O)[C@@H](OC)C(=O)[C@H](C)C[C@H](C)/C=C/C=C/C=C/1C [Everolimus]
UMAP embedding of cell painting features: cluster (5 μM): cluster 3

COC(=O)Nc1nc2ccc(Sc3ccccc3)cc2[nH]1 [Fenbendazole]
Uniformity or variation of response between human iPSC lines in UMAP embedding: splitting of clusters

CCc1c2c(nc3ccc(OC(=O)N4CCC(N5CCCCC5)CC4)cc13)-c1cc3c(c(=O)n1C2)COC(=O)[C@]3(O)CC [Irinotecan]
Changes of features in the cell nucleus across cell lines: cause similar changes in multiple cell lines

O=C(CCCCCCC(=O)Nc1ccccc1)NO [Vorinostat]
Uniformity or variation of response between human iPSC lines in UMAP embedding: splitting of clusters
